Assay [1] has as its target T1, Tyrosine-protein phosphatase non-receptor type 1 (Homo sapiens) (UniProt P18031).
T1 sequence (whole entry): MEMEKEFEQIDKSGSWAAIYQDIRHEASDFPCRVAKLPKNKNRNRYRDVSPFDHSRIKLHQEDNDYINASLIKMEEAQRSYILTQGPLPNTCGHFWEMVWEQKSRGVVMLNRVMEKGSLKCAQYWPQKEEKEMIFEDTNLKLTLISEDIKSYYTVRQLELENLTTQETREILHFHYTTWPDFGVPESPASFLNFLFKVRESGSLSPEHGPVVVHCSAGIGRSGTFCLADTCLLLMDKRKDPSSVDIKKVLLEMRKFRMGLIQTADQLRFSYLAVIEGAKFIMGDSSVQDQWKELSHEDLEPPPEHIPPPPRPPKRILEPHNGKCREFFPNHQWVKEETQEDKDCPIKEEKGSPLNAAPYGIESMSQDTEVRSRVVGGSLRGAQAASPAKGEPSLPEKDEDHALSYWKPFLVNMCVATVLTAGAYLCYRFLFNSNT
The assay is described as follows: Inhibition of human recombinant GST-tagged PTP1B using para-nitrophenyl phosphate as substrate assessed as release of para-nitrophenol at 10 uM after 10 mins by spectrophotometric analysis.

The test system of another assay is HCT-8. The assay is described as follows: Cytotoxicity against human HCT8 cells assessed as cell viability at 10 uM after 96 hrs by MTT assay. It counts as functional, cell-based. On the technique in general: Formazan colour is commonly taken as a measure of viable cells.
A further assay relates to KETR3. In words: Cytotoxicity against human Ketr3 cells assessed as cell viability at 10 uM after 96 hrs by MTT assay. Format: functional, cell-based.
The next assay relates to MCF7. In words: Cytotoxicity against human MCF7 cells assessed as cell viability at 10 uM after 96 hrs by MTT assay. Format: functional, cell-based.
A further assay deals with Bel-7402. In words: Cytotoxicity against human Bel7402 cells assessed as cell viability at 10 uM after 96 hrs by MTT assay. Format: functional, cell-based.
In the next assay the test system is A549. The assay is described as follows: Cytotoxicity against human A549 cells assessed as cell viability at 10 uM after 96 hrs by MTT assay. Format: functional, cell-based.
For a further assay, the system named is BGC-823. The assay is described as follows: Cytotoxicity against human BGC823 cells assessed as cell viability at 10 uM after 96 hrs by MTT assay. It counts as functional, cell-based.
Assay [2] deals with Human immunodeficiency virus 1. The assay is described as follows: Antiviral activity against HIV1 infected in human 293T cells assessed as inhibition of viral replication at 10 uM incubated for 15 mins prior to infection measured after 48 hrs by luciferase reporter gene assay. It counts as functional, organism-based. On the technique in general: A reporter such as luciferase makes a cellular process visible.

For assay [3], the system named is Human immunodeficiency virus 1. In words: Antiviral activity against HIV1 infected in human 293T cells assessed as inhibition of viral replication incubated for 15 mins prior to infection measured after 48 hrs by luciferase reporter gene assay. Format: functional, organism-based. The following applies: Human immunodeficiency virus 1, HEK-293T.

Calls of active or inactive are those of the source. No cut-off for these calls is given here.

In the case of `CCO[C@@H]1[C@@H]2[C@H](CC[C@@]3(C)[C@H](O)[C@H]4[C@@H](OC(=O)/C=C/c5ccccc5)[C@@H](C)C[C@]4(O)C(=O)[C@@]13C)C2(C)C`, the inhibition result in [1] is “inactive”. Besides, the outcome in the assay with HCT-8, with KETR3, in the assay on MCF7, in the assay on Bel-7402, with A549 and with BGC-823 was inactive. The result in assay [2] was inactive.

Regarding `C[C@H]1C[C@]2(O)C(=O)[C@@]3(C)[C@H](O)[C@@H]4[C@H](CC[C@@]3(C)[C@H](O)[C@H]2[C@H]1OC(=O)c1ccccc1)C4(C)C`, the inhibition result in assay [1] was “inactive”. Also, the outcome in the assay with HCT-8, with KETR3, in the assay on MCF7, in the assay with Bel-7402, in the assay on A549 and with BGC-823 was inactive. Further, the outcome in assay [2] was inactive.

On to `C[C@H]1C[C@]2(O)C(=O)[C@@]3(C)[C@@H]4[C@@H](O)C(C)(C)[C@H]4CC[C@@]3(C)[C@H](O)[C@H]2[C@H]1OC(=O)c1ccccc1`, for which the inhibition result in assay [1] was “inactive”. The outcome with HCT-8, with KETR3, in the assay with MCF7, with Bel-7402, with A549 and in the assay with BGC-823 was inactive. Moreover, in assay [2], the result was inactive.

As to `C[C@H]1C[C@]2(O)C(=O)[C@@]3(C)[C@@H]4[C@@H](O)C(C)(C)[C@H]4CC[C@@]3(C)[C@H](O)[C@H]2[C@H]1OC(=O)/C=C/c1ccccc1`, the inhibition result in assay [1] was “inactive”. Also, the outcome in the assay on HCT-8, with KETR3, in the assay with MCF7, with Bel-7402, in the assay on A549 and in the assay on BGC-823 was inactive. Further, in assay [2], the outcome was inactive.

On to `CO[C@@H]1[C@@H]2[C@H](CC[C@@]3(C)[C@H](O)[C@H]4[C@@H](O)[C@@H](C)C[C@]4(OC(=O)c4ccccc4)C(=O)[C@@]13C)C2(C)C`, for which, in [1], the inhibition result was “inactive”. Besides, the result with HCT-8, with KETR3, in the assay on MCF7, with Bel-7402, with A549 and in the assay with BGC-823 was inactive. The result in assay [2] was inactive.

In the case of `C[C@H]1C[C@]2(O)C(=O)[C@@]3(C)[C@@H]4O[C@H]4C(C)(C)[C@@H](O)CC[C@@]3(C)[C@H](O)[C@H]2[C@H]1OC(=O)/C=C/c1ccccc1`, the inhibition entry in [1] was “inactive”. The outcome in the assay on HCT-8, in the assay on KETR3, in the assay with MCF7, in the assay with Bel-7402, in the assay with A549 and in the assay on BGC-823 was inactive. Also, in [2], the outcome was inactive.

For the molecule `CO[C@@H]1[C@@H]2[C@H](CC[C@@]3(C)[C@H](O)[C@H]4[C@@H](O)[C@@H](C)C[C@]4(OC(=O)/C=C/c4ccccc4)C(=O)[C@@]23C)C1(C)C`, the inhibition entry in assay [1] is “inactive”. Further, the result with HCT-8, in the assay with KETR3, in the assay on MCF7, with Bel-7402, in the assay with A549 and in the assay on BGC-823 was inactive. In addition, in assay [2], the result was inactive.

With `CCO[C@@H]1[C@@H]2[C@H](CC[C@@]3(C)[C@H](O)[C@H]4[C@@H](OC(=O)c5ccccc5)[C@@H](C)C[C@]4(O)C(=O)[C@@]13C)C2(C)C`, the inhibition result in assay [1] was “inactive”. The outcome in the assay with HCT-8, in the assay with KETR3, in the assay on MCF7, with Bel-7402, in the assay on A549 and with BGC-823 was inactive. In addition, in assay [2], the result was inactive.

In the case of `CO[C@@H]1[C@@H]2[C@H](CC[C@@]3(C)[C@H](O)[C@H]4[C@@H](OC(=O)/C=C/c5ccccc5)[C@@H](C)C[C@]4(O)C(=O)[C@@]13C)C2(C)C`, the inhibition entry in assay [1] was “inactive”. The result with HCT-8, in the assay with KETR3, in the assay with MCF7, in the assay on Bel-7402, in the assay with A549 and in the assay on BGC-823 was inactive. In addition, the outcome in [2] was inactive.

Regarding `C[C@H]1C[C@]2(O)C(=O)[C@@]3(C)[C@H](O)[C@@H]4[C@H](CC[C@@]3(C)[C@H](O)[C@H]2[C@H]1OC(=O)/C=C/c1ccccc1)C4(C)C`, the inhibition result in [1] was “inactive”. The result in the assay with HCT-8, with KETR3, in the assay on MCF7, in the assay with Bel-7402, with A549 and in the assay on BGC-823 was inactive. In assay [2], the result was inactive.

Turning to `O=C1Nc2ccc(Cl)cc2[C@@](C#CC2CC2)(C(F)(F)F)O1` [EFAVIRENZ], the IC50 (commonly the point on the concentration scale where inhibition reaches its midpoint) in [3] stood at 60 nM.

On to `C[C@H]1C[C@]2(O)C(=O)[C@@]3(C)[C@@H]4O[C@H]4C(C)(C)[C@@H](O)CC[C@@]3(C)[C@H](O)[C@H]2[C@H]1OC(=O)c1ccccc1`, for which, in assay [1], the inhibition result was “inactive”. The result in the assay with HCT-8, with KETR3, with MCF7, in the assay on Bel-7402, in the assay with A549 and in the assay on BGC-823 was inactive. Also, the outcome in assay [2] was inactive.

These data come from ChEMBL document CHEMBL2385042, “Diterpenoids with diverse skeletons from the roots of Euphorbia micractina” (J Nat Prod, 2013).
